Data published in patent US7117100B2, “Method for the compositional analysis of polymers” (Massachusetts Institute of Technology, priority 1999, dated 2006).

Legend:
heparinase III = target: T1, heparinase III (Pedobacter heparinus, UniProt Q59289); experiment: Cleavage of defined oligosaccharide substrates by heparinase III; type: biochemical, Flavobacterium heparinum
T1 construct: made in house
From the text: Secondary specificities of the heparinases have been observed, especially under exhaustive degradation conditions. As a part of ongoing investigations into the enzymology of heparinases, the relative rates of cleavage of I and G containing sites by heparinase I and III with defined substrates under different conditions have been measured. For instance heparinase III cleaves both at I and G containing linkages and not I2S [H. E. Conrad, Heparin Binding Proteins (Academic Press, San Diego, 1998).]. However, under the reaction conditions used in this study, there is a dramatic (8-10 fold) difference in the rates of cleavage, with I-containing linkages being clipped more slowly than G-containing linkages (FIG. 7A). […] Each reaction was followed by capillary electrophoresis. […] Under the “short” conditions of digest it is expected that only G-containing saccharides are cleaved to an appreciable extent. [Conditions for enzymatic digest of HLGAG oligosaccharides were set forth above, briefly, Digests were either designated as “short” or “exhaustive”. Short digests were completed with 50 nM enzyme for 10 minutes. Exhaustive digests were completed using 200 nM enzyme for either four hours or overnight. Partial nitrous acid cleavage was completed using a modification of published procedures. Briefly, to an aqueous solution of saccharide was added a 2× solution of sodium nitrite in HCl such that the concentration of nitrous acid was 2 mM and HCl was 20 mM. The reaction was allowed to proceed at room temperature with quenching of aliquots at various time points via the addition of 1 μL of 200 mM sodium acetate 1 mg/mL BSA pH 6.0. Exhaustive nitrous acid was completed by reacting saccharide with 4 mM nitrous acid in HCl overnight at room temperature.
Quite a few factors have severely limited and complicated prior art studies and interpretation of heparinase substrate specificity experiments. First, not only is a homogenous substrate preparation difficult, but also analyzing the substrates and products have been very challenging. […]

Heparinase II = experiment: Incubation of hexasaccharide with heparinase II; type: biochemical
FGF-2 = FGF-2 (Homo sapiens, UniProt P09038); experiment: Saccharide binding to FGF-2 immobilized on the MALDI surface, salt wash, MALDI-MS detection
Sequence of FGF-2 (P09038 134-288 limits assumed, species assumed): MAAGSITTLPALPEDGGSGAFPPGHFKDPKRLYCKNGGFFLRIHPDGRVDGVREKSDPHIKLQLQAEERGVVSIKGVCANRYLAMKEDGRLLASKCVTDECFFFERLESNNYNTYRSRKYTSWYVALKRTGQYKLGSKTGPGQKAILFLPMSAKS
Description: Protein preparation and immobilization. ATIII was incubated overnight with excess porcine mucosal heparin, then biotinylated with EZ-link sulfo-NHS biotin (Pierce). Canon NP Type E transparency film was taped to the MALDI sample plate and used as a protein immobilization surface. FGF-1 and FGF-2 were immobilized by spotting 1 μl of aqueous solution on the film and air-drying. ATIII was immobilized by first drying 4 μg neutravidin on the film surface, then adding biotinylated ATIII to the neutravidin spot. Heparin was removed by washing ten times with 1M NaCl and ten times with water.
Saccharide binding, selection and analysis. Saccharides were derived from a partial digest of porcine mucosal heparin by heparinase I. The hexasaccharide fraction was obtained by size exclusion chromatography on Biogel P-6 and lyophilized to dryness. Saccharides were bound to immobilized proteins by spotting 1 μl of aqueous solution on the protein spot for at least five minutes. Unbound saccharides were removed by washing with water fifteen times. […] All saccharides were detected as noncovalent complexes with (RG)19R using MALDI parameters described herein.
Isolation, Purification, and Selection of FGF binders from SMC heparan sulfate. […] After drying, the sample was washed, 2 pmol/μl (RG)19R in matrix was added, and the sample was analyzed as outlined above.

[1] = Relative rates of cleavage of tetrasaccharides by recombinant heparinase III, followed by capillary electrophoresis; type: biochemical
From the text: (§1) Secondary specificities of the heparinases have been observed, especially under exhaustive degradation conditions. As a part of ongoing investigations into the enzymology of heparinases, the relative rates of cleavage of I and G containing sites by heparinase I and III with defined substrates under different conditions have been measured. For instance heparinase III cleaves both at I and G containing linkages and not I2S [H. E. Conrad, Heparin Binding Proteins (Academic Press, San Diego, 1998).]. However, under the reaction conditions used in this study, there is a dramatic (8-10 fold) difference in the rates of cleavage, with I-containing linkages being clipped more slowly than G-containing linkages (FIG. 7A). […] Each reaction was followed by capillary electrophoresis. […] Under the “short” conditions of digest it is expected that only G-containing saccharides are cleaved to an appreciable extent. [Conditions for enzymatic digest of HLGAG oligosaccharides were set forth above, briefly, Digests were either designated as “short” or “exhaustive”. Short digests were completed with 50 nM enzyme for 10 minutes. Exhaustive digests were completed using 200 nM enzyme for either four hours or overnight. Partial nitrous acid cleavage was completed using a modification of published procedures. […]

[2] = Cleavage of tetrasaccharides by heparinase I; type: biochemical; details: tetrasaccharide substrates, same study as FIG. 7A
From the text: as §1

ΔU2SHNS,6SI2SHNS,6S
Degradation by a commercial source of heparinase III (heparinase III; commercial enzyme, sulfatase contamination suggested): able to degrade | Cleavage by recombinant heparinase III (heparinase III; recombinant enzyme without contamination by other heparin degrading enzymes): does not cleave

ΔUHNH,6SGHNSIHNAc
Cleavage by heparinase III (heparinase III; "short" digest conditions): cleavage occurs only at the G | Cleavage by heparinase II (Heparinase II): only cleavage at the G and not the I was observed

ΔU2SHNS,6SI2SHNS,6SI2SHNS,6S [nonasulfated hexasaccharide]
FGF-2 binder selected from SMC heparan sulfate (FGF-2; bovine aortic SMC HLGAG fragments digested with heparinase II, spotted on FGF-2): high affinity binder | Structures remaining on immobilized FGF upon a salt wash (FGF-2; hexasaccharide fraction from incomplete heparinase I digestion of porcine intestinal mucosa heparin): remained

B1: heparinase III: HLGAG degrading enzyme; cleaves at a glycosidic linkage before an unsulfated glucuronic acid (protein, UniProt Q59289 25-659, looked up)
Heparin-sulfate lyase: QSSSITRKDFDHINLEYSGLEKVNKAVAAGNYDDAAKALLAYYREKSKAREPDFSNAEKPADIRQPIDKVTREMADKALVHQFQPHKGYGYFDYGKDINWQMWPVKDNEVRWQLHRVKWWQAMALVYHATGDEKYAREWVYQYSDWARKNPLGLSQDNDKFVWRPLEVSDRVQSLPPTFSLFVNSPAFTPAFLMEFLNSYHQQADYLSTHYAEQGNHRLFEAQRNLFAGVSFPEFKDSPRWRQTGISVLNTEIKKQVYADGMQFELSPIYHVAAIDIFLKAYGSAKRVNLEKEFPQSYVQTVENMIMALISISLPDYNTPMFGDSWITDKNFRMAQFASWARVFPANQAIKYFATDGKQGKAPNFLSKALSNAGFYTFRSGWDKNATVMVLKASPPGEFHAQPDNGTFELFIKGRNFTPDAGVFVYSGDEAIMKLRNWYRQTRIHSTLTLDNQNMVITKARQNKWETGNNLDVLTYTNPSYPNLDHQRSVLFINKKYFLVIDRAIGEATGNLGVHWQLKEDSNPVFDKTKNRVYTTYRDGNNLMIQSLNADRTSLNEEEGKVSYVYNKELKRPAFVFEKPKKNAGTQNFVSIVYPYDGQKAPEISIRENKGNDFEKGKLNLTLTINGKQQLVLVP
Difference in the rates of cleavage, I-containing linkages clipped more slowly than G-containing linkages ([1]; reaction conditions of this study): 8-10 fold | Cleavage of G-containing linkages relative to I-containing linkages ([1]; recombinant heparinase III, tetrasaccharide substrates): roughly 10 times

B2: heparinase I: HLGAG degrading enzyme; clips at a glycosidic linkage before a 2-O sulfated iduronic acid (protein, UniProt Q05819 22-384, looked up)
Heparin lyase I: QQKKSGNIPYRVNVQADSAKQKAIIDNKWVAVGINKPYALQYDDKLRFNGKPSYRFELKAEDNSLEGYAAGETKGRTELSYSYATTNDFKKFPPSVYQNAQKLKTVYHYGKGICEQGSSRSYTFSVYIPSSFPDNATTIFAQWHGAPSRTLVATPEGEIKTLSIEEFLALYDRMIFKKNIAHDKVEKKDKDGKITYVAGKPNGWKVEQGGYPTLAFGFSKGYFYIKANSDRQWLTDKADRNNANPENSEVMKPYSSEYKTSTIAYKMPFAQFPKDCWITFDVAIDWTKYGKEANTILKPGKLDVMMTYTKNKKPQKAHIVNQQEILIGRNDDDGYYFKFGIYRVGNSTVPVTYNLSGYSETAR
Linkage specificity of cleavage by heparinase I [2]: cleavage only occurs at I2S-containing linkages
